Test results taken from ChEMBL document CHEMBL1201862, “PubChem BioAssay data set” (2004).
Activity calls are given as the source filed them.

Assays:
[1] = biological target: DNA (cytosine-5)-methyltransferase 1 (Homo sapiens, UniProt P26358); assay: DNMT1 methyltransferase inhibitors, confirmation, biochemical, fluorescent molecular beacon (AID 602386); assay type: functional
[2] = biological target: T1, Low molecular weight phosphotyrosine protein phosphatase (Homo sapiens, UniProt P24666); assay type: functional; conditions: read-out: IC50_Mean;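 further: Dose-response confirmation assay measuring inhibition of LMPTP enzyme activity by fluorescence intensity read-out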
T1 sequence (P24666 whole entry): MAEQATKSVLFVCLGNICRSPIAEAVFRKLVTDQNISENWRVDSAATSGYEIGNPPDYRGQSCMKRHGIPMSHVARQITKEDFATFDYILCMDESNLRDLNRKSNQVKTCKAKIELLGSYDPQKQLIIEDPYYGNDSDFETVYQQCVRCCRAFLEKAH

[3] = biological target: T2, Adenosylmethionine-8-amino-7-oxononanoate aminotransferase (Mycobacterium tuberculosis, UniProt P9WQ81); assay: Mycobacterium tuberculosis BioA enzyme inhibitor Measured in Biochemical System Using Plate Reader - 2163-02_Inhibitor_Dose_CherryPick_Activity.; assay type: functional, Mycobacterium tuberculosis UT205
T2 sequence (P9WQ81 whole entry): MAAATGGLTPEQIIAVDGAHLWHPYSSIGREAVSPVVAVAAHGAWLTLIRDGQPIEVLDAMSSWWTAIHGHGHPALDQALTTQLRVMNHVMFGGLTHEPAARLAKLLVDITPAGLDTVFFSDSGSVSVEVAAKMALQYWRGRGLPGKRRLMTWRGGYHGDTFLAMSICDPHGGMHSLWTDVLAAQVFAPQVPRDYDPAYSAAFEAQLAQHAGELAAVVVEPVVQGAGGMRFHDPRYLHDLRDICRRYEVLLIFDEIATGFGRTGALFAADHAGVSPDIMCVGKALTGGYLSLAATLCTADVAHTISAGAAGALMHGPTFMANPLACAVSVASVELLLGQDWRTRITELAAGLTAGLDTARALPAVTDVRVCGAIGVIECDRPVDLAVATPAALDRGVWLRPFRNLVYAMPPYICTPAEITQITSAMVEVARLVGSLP

[4] = biological target: T3, Sentrin-specific protease 7 (Homo sapiens, UniProt Q9BQF6); assay type: functional;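 further: Luminescence-based dose-response confirmation of ultra-high-throughput screening hits, measuring inhibition of SENP7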
T3 sequence (Q9BQF6 whole entry): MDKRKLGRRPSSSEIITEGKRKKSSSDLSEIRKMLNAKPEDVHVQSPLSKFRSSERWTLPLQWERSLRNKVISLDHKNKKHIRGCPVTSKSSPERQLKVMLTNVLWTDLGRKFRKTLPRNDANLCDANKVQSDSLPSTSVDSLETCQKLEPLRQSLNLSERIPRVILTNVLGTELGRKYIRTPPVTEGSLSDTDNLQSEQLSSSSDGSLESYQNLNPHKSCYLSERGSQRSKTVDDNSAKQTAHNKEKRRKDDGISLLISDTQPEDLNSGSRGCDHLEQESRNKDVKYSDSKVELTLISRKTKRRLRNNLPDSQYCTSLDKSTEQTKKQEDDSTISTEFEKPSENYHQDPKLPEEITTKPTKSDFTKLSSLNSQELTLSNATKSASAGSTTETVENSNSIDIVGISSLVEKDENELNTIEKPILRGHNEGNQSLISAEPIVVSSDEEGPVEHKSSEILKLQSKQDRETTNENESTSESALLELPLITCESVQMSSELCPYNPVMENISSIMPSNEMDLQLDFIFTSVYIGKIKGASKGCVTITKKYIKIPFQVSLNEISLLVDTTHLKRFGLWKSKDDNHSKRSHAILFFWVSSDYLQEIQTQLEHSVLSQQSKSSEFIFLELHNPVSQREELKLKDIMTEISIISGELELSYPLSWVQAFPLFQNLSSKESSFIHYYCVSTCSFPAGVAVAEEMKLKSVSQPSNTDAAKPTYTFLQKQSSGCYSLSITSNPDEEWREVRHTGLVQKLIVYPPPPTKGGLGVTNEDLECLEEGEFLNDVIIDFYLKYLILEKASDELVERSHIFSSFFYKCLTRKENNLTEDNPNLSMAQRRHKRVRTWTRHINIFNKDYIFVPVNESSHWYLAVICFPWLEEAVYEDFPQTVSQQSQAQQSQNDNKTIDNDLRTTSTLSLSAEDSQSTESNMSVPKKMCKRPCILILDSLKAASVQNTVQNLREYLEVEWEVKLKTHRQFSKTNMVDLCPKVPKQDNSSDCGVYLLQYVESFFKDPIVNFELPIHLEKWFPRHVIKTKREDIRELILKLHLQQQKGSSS

Caspase-3 = biological target: T4, Caspase-3 (Homo sapiens, UniProt P42574); assay type: functional;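 further: Dose-response selectivity test against caspase-3 for candidate inhibitors of sentrin-specific proteases (SENPs)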
T4 sequence (P42574 whole entry): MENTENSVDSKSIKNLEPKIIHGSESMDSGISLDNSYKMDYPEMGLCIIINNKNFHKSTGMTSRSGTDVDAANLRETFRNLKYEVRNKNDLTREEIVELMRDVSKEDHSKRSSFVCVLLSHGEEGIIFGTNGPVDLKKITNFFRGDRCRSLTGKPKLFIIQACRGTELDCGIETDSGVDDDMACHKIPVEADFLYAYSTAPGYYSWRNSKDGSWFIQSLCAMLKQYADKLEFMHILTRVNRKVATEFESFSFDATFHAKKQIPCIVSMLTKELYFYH

[5] = biological target: T5, Sentrin-specific protease 6 (Homo sapiens, UniProt Q9GZR1); assay type: functional;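 further: Luminescence-based dose-response confirmatory assay of SENP6 inhibition, following up an ultra-high-throughput screen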
T5 sequence (Q9GZR1 whole entry): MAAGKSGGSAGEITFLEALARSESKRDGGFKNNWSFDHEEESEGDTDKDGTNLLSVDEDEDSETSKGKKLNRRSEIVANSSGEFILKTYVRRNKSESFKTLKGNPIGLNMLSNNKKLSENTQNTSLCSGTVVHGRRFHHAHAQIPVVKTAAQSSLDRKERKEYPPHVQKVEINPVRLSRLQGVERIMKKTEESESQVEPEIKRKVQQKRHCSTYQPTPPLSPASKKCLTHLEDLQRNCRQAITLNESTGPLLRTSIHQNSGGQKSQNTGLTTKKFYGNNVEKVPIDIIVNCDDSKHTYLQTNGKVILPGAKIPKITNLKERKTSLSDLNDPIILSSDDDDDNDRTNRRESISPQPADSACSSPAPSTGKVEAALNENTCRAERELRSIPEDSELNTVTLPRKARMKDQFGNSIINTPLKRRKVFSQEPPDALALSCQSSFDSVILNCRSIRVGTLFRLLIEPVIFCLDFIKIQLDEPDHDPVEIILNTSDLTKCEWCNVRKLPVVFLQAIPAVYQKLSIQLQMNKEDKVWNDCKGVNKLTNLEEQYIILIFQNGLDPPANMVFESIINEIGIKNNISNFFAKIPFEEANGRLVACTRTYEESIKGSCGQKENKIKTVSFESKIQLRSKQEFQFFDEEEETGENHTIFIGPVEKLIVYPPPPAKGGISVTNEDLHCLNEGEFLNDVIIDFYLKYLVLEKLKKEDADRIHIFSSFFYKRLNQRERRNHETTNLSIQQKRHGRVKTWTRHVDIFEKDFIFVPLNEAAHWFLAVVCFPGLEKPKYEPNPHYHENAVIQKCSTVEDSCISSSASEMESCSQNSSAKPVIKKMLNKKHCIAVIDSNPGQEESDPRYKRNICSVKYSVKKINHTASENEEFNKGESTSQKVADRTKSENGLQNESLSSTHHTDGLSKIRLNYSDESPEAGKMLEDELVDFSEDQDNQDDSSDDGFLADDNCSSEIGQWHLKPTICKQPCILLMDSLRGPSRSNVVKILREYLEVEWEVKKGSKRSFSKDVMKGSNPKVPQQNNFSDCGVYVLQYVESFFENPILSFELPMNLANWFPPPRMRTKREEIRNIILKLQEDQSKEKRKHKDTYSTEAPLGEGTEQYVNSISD

[6] = biological target: T6, Sentrin-specific protease 8 (Homo sapiens, UniProt Q96LD8); assay type: functional;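 further: luminescence read-out of SENP8 inhibition, dose-response confirmation following an ultra-high-throughput screen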
T6 sequence (Q96LD8 whole entry): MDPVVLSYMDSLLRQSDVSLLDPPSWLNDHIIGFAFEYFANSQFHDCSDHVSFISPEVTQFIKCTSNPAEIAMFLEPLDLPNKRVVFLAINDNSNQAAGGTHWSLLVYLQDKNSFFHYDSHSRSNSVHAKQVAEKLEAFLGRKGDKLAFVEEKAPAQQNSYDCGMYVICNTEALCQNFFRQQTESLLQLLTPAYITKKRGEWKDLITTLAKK

[7] = biological target: T7, Long-chain-fatty-acid--AMP ligase FadD28 (Mycobacterium tuberculosis, UniProt P9WQ59); assay: Fluorescence polarization aasay to screen for inhibitors that compete for the binding of FadD28 to a bisubstrate Measured in Biochemical System Using Plate Reader - 2147-01_Inhibitor_Dose_CherryPick_Activity.; assay type: functional, Mycobacterium tuberculosis H37Rv
T7 sequence (P9WQ59 whole entry): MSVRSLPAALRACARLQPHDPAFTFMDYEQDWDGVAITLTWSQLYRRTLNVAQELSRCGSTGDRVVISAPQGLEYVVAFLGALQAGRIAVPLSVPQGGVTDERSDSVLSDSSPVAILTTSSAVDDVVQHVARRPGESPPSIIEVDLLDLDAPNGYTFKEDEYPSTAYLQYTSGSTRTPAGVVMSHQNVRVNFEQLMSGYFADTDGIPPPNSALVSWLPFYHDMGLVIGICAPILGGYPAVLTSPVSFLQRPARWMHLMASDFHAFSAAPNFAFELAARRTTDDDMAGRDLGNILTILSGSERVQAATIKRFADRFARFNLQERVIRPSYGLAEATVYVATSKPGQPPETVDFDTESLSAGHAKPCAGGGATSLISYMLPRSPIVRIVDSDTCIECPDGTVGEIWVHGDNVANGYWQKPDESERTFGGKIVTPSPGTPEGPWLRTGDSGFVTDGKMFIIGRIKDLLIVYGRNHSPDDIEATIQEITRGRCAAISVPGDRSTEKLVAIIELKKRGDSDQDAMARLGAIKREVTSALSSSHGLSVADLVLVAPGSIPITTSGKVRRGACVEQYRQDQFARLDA

[8] = biological target: T8, Carboxy-terminal domain RNA polymerase II polypeptide A small phosphatase 1 (Homo sapiens, UniProt Q9GZU7); assay: inhibitors of CTDSP1, concentration-response testing, biochemical assay, absorbance-based, actives from ultra-high-throughput screening (AID 540297); assay type: functional
T8 sequence (Q9GZU7 whole entry): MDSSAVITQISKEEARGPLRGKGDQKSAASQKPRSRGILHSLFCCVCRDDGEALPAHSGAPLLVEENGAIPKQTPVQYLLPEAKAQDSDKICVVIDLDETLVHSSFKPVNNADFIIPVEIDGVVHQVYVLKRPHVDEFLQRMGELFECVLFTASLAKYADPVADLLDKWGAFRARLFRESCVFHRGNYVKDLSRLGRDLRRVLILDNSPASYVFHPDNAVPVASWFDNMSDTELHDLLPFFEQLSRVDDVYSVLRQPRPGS

[9] = biological target: 26S proteasome non-ATPase regulatory subunit 14 (Homo sapiens, UniProt O00487); assay: inhibition of proteasome subunit RPN11 – biochemical, fluorescence polarization, uHTS hits, confirmation (AID 602368); assay type: functional
[10] = biological target: 72 kDa type IV collagenase (Homo sapiens, UniProt P08253); assay: Dose Response validation of uHTS RPN11 inhibitor hits using a MMP-2 Fluorescence assay.; assay type: functional
Prothrombin = Prothrombin (Bos taurus, UniProt P00735); assay: thrombin inhibition, dose response, biochemical, fluorescence polarization, uHTS hits (AID 602369); assay type: functional
[11] = cytotoxicity toward NIH3T3 fibroblasts, dose response, counter-screen, cell-based, ATP luminescence, mouse fibroblasts (AID 2010); assay type: functional;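 further: cells exposed to compound for about 90 hours before reading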
[12] = inhibitors of intracellular T. cruzi replication, confirmation, NIH3T3 host cells, beta-gal luminescence (AID 2044); assay type: functional, cell-based;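 further: intracellular parasites grown in NIH/3T3 mouse fibroblasts as host cells; luminescent beta-galactosidase reporter signal from transgenic T. cruzi replicating inside host cells; inhibitors lower the luminescence signal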
[13] = Fluorescence-based cell-based high throughput dose response assay for inhibitors of the interaction of nucleotide-binding oligomerization domain containing 2 (NOD2) and the receptor-interacting serine-threonine kinase 2 (RIPK2).; assay type: functional; conditions: Homo sapiens
Beta Lactamase = Beta Lactamase (Pseudomonas aeruginosa, UniProt Q932Y6); assay: beta-lactamase reporter inhibitor potency, dose response, artefact control for NOD2-RIPK2 interaction inhibitor project, BLA reporter cells, FRET fluorescence (AID 651552); assay type: functional, cell-based
Chain of Beta Lactamase (Q932Y6 whole entry): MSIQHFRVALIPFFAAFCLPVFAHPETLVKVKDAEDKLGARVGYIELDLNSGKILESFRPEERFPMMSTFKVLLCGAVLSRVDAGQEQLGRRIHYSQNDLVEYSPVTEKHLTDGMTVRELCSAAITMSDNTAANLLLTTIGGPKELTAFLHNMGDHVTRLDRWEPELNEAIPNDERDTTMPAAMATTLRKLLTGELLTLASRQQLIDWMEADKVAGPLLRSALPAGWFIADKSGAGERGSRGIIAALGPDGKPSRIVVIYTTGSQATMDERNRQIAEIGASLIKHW

Chain of 72 kDa type IV collagenase (P08253 whole entry): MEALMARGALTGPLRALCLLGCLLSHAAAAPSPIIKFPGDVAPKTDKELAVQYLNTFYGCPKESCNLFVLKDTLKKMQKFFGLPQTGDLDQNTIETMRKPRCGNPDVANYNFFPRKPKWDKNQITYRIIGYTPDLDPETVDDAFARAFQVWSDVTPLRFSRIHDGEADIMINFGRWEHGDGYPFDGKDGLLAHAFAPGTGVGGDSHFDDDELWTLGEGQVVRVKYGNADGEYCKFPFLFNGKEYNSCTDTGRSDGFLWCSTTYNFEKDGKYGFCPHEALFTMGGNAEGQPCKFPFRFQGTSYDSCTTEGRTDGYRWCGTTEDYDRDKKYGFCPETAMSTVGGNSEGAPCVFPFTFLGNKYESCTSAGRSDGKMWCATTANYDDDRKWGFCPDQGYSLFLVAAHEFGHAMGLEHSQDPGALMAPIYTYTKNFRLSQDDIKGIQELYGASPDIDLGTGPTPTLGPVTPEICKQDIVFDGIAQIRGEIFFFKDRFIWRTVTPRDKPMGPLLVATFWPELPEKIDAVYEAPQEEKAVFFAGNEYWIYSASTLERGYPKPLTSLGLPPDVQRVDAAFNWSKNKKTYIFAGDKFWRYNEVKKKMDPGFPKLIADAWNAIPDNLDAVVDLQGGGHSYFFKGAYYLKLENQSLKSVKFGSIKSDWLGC
Chain of 26S proteasome non-ATPase regulatory subunit 14 (O00487 whole entry): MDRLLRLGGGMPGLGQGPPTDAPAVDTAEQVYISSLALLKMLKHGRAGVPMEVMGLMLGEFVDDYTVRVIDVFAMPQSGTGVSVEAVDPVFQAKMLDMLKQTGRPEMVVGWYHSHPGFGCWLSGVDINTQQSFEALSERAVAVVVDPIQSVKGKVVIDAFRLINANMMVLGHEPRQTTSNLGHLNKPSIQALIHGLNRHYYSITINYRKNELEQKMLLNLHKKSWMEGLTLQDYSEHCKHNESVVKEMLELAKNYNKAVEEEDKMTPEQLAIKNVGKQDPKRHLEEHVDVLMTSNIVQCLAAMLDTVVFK
Chain of DNA (cytosine-5)-methyltransferase 1 (P26358 whole entry): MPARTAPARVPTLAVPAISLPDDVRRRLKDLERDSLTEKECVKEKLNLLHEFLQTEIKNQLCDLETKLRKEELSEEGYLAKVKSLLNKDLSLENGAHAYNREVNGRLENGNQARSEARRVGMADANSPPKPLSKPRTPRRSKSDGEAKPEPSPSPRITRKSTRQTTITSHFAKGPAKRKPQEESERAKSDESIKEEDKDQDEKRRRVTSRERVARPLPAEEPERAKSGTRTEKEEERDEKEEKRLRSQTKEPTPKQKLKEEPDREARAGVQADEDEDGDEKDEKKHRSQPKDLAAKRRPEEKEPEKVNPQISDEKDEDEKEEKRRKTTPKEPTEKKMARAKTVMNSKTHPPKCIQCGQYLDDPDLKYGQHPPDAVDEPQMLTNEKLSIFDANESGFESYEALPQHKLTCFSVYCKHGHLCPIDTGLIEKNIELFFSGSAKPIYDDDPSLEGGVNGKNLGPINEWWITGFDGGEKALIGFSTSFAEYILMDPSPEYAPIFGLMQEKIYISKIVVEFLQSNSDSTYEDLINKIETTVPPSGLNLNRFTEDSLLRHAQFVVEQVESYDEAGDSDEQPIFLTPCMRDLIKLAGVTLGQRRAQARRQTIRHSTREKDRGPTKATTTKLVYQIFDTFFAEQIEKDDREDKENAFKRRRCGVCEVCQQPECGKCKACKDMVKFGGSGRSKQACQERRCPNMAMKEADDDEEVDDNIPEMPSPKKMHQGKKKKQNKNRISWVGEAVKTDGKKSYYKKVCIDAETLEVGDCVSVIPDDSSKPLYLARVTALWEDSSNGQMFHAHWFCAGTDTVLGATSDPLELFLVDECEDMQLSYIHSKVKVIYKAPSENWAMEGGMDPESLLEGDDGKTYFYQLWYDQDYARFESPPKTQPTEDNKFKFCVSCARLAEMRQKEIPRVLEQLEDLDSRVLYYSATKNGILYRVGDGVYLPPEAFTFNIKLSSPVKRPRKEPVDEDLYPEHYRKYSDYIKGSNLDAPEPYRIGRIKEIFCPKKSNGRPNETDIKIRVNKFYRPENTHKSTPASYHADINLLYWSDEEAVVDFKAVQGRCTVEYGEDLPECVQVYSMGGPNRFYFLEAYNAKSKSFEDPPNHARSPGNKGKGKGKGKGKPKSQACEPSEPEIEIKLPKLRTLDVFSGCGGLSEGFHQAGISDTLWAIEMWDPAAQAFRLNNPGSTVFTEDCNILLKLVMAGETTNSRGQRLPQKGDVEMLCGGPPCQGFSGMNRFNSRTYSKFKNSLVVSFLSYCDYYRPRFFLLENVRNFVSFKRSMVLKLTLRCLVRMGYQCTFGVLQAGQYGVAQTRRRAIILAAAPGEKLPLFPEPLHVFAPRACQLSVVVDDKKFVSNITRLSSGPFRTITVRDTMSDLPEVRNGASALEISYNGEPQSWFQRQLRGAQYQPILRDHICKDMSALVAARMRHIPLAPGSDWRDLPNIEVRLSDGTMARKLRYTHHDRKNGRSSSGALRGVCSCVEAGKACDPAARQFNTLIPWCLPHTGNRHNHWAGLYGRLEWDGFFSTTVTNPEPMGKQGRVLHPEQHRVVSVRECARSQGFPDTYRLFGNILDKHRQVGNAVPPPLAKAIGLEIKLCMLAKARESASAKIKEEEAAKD

## N=C(N)NCCCS(=O)(=O)Nc1ccc(Nc2c3ccccc3nc3cc([N+](=O)[O-])ccc23)cc1
[1]
  IC50: 6.83 µM (active)
[2]
  IC50: 57 µM (inactive)

## O=C(Nc1ncc2c(n1)CC(c1ccccc1)CC2=O)c1ccco1 (stereo not given)
[3]
  AC50: 0.201 µM (active)

## O=C(Nc1ccc(Cl)c(-c2nc3ccccc3[nH]2)c1)c1cccnc1
[3]
  AC50: 0.788 µM (active)

## COc1cc(-c2nnc(S)n2-c2cccc(C(F)(F)F)c2)cc(OC)c1OC
[3]
  AC50: 10.6 µM (active)

## O=[N+]([O-])c1ccc(N/N=N/c2ccccc2)cc1
[4]
  IC50: 9.64 µM (active)
Caspase-3
  IC50: 45 µM (active)
[5]
  IC50: 46.5 µM (active)
[6]
  IC50: 75.3 µM (active)

## O=C(O)C(c1ccccc1)N1C(=O)/C(=C\c2ccc(-c3ccccc3Cl)o2)SC1=S (stereo not given)
[1]
  IC50: 4.27 µM (active)
[7]
  AC50: 15.6 µM (active)

## CCOC(=O)c1ccc(Nc2cnc3ccccc3n2)cc1
[4]
  IC50: 6.72 µM (active)
Caspase-3
  IC50: 64.6 µM (active)
[5]
  IC50: > 100 µM (inactive)
[6]
  IC50: > 100 µM (inactive)

## O=C(NCc1cccc(CNC(=O)C(=O)NCc2ccco2)c1)C(=O)NCc1ccco1
[8]
  IC50: > 80 µM (inactive)
[2]
  IC50: 6.32 µM (active)

## Cc1ccsc1/C=N/n1c(S)nnc1-c1cc(-c2ccccc2)[nH]n1
[9]
  IC50: 21.1 µM (active)
[10]
  IC50: > 100 µM (inactive)
Prothrombin
  IC50: 77.2 µM (active)

## C=CCn1cc(/C=N/NC(=O)COc2cccc3cccnc23)c2ccccc21
[9]
  IC50: 27.8 µM (active)
[10]
  IC50: > 100 µM (inactive)
Prothrombin
  IC50: 39 µM (active)

## C/N=c1\scc(-c2cc(OC)ccc2OC)n1/N=C/c1c(C)[nH]c2ccccc12
[9]
  IC50: 23.8 µM (active)
[10]
  IC50: > 100 µM (inactive)
[11]
  EC50: > 60 µM (not active)
[12]
  EC50: 1.64 µM (active)
Prothrombin
  IC50: 21.1 µM (active)

## O=C(CN1CCN(S(=O)(=O)c2ccc(Br)cc2)CC1)N/N=C/c1ccc(Cl)c([N+](=O)[O-])c1
[13]
  IC50: 1.83 µM (active)
Beta Lactamase
  IC50: 48.7 µM (inactive)
